Experimental data: PubChem BioAssay (NCI)
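All cell lines were grown in 96-well plates and treated with compound for 48 hours. GI50 is the concentration that inhibits growth by half. Definition used: TGI = concentration required for complete inhibition of growth.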

Tests used:
Test in all cases: NCI tumour cell line growth inhibition, 48 h
A549 NSCLC = tested on: A549 NSCLC
COLO 205 colon = tested on: COLO 205 colon
NCI/ADR-RES ovarian = tested on: NCI/ADR-RES ovarian
UO-31 renal = tested on: UO-31 renal
786-0 renal = tested on: 786-0 renal
A498 renal = tested on: A498 renal
ACHN renal = tested on: ACHN renal
BT-549 breast = tested on: BT-549 breast
CAKI-1 renal = tested on: CAKI-1 renal
CCRF-CEM leukemia = tested on: CCRF-CEM leukemia
DU-145 prostate = tested on: DU-145 prostate
EKVX NSCLC = tested on: EKVX NSCLC
HCC-2998 colon = tested on: HCC-2998 colon
HCT-116 colon = tested on: HCT-116 colon
HL-60(TB) leukemia = tested on: HL-60(TB) leukemia
HOP-92 NSCLC = tested on: HOP-92 NSCLC
HT29 colon = tested on: HT29 colon
IGROV1 ovarian = tested on: IGROV1 ovarian
KM12 colon = tested on: KM12 colon
M14 melanoma = tested on: M14 melanoma
MALME-3M melanoma = tested on: MALME-3M melanoma
MCF7 breast = tested on: MCF7 breast
MDA-MB-435 = tested on: MDA-MB-435
NCI-H226 lung = tested on: NCI-H226 lung
NCI-H23 lung = tested on: NCI-H23 lung
NCI-H460 lung = tested on: NCI-H460 lung
NCI-H522 lung = tested on: NCI-H522 lung
OVCAR-4 ovarian = tested on: OVCAR-4 ovarian
OVCAR-5 ovarian = tested on: OVCAR-5 ovarian
PC-3 prostate = tested on: PC-3 prostate
RPMI-8226 leukemia = tested on: RPMI-8226 leukemia
SF-268 CNS = tested on: SF-268 CNS
SF-295 CNS = tested on: SF-295 CNS
SF-539 CNS = tested on: SF-539 CNS
SK-MEL-2 melanoma = tested on: SK-MEL-2 melanoma
SK-MEL-28 melanoma = tested on: SK-MEL-28 melanoma
SK-MEL-5 melanoma = tested on: SK-MEL-5 melanoma
SK-OV-3 ovarian = tested on: SK-OV-3 ovarian
SNB-19 CNS = tested on: SNB-19 CNS
SNB-75 CNS = tested on: SNB-75 CNS
SW-620 colon = tested on: SW-620 colon
T-47D breast = tested on: T-47D breast
TK-10 renal = tested on: TK-10 renal
UACC-257 melanoma = tested on: UACC-257 melanoma

`Cc1cn2c(/C=N/N=C(N)N)c(-c3cc([N+](=O)[O-])c(Cl)cc3Cl)nc2s1` gave a TGI (A549 NSCLC) of over 100 µM, a TGI (COLO 205 colon) of over 100 µM and a TGI (NCI/ADR-RES ovarian) of over 100 µM. The TGI (UO-31 renal) was 3.74 µM.
With `CCN(Cc1ccc(Cl)c(Cl)c1)c1ccc2nc(N)nc(N)c2c1C` the GI50 (786-0 renal) was under 0.01 µM, the TGI (786-0 renal) was 1.27 µM and the GI50 (A498 renal) was 0.785 µM. The TGI (A498 renal) was 3.63 µM, the GI50 (ACHN renal) was under 0.01 µM and the TGI (ACHN renal) was 1.78 µM. The GI50 (BT-549 breast) was 0.296 µM, the TGI (BT-549 breast) was 7.27 µM and the GI50 (CAKI-1 renal) was under 0.0237 µM. The TGI (CAKI-1 renal) was 0.802 µM, the GI50 (CCRF-CEM leukemia) was 0.0252 µM and the TGI (CCRF-CEM leukemia) was 6.3 µM. For the same compound, the GI50 (COLO 205 colon) was 0.148 µM, the TGI (COLO 205 colon) was 1.69 µM and the GI50 (DU-145 prostate) was 0.0544 µM. The TGI (DU-145 prostate) was 2 µM, the TGI (EKVX NSCLC) was 2.82 µM and the GI50 (HCC-2998 colon) was 0.039 µM. The TGI (HCC-2998 colon) was 1.24 µM, the GI50 (HCT-116 colon) was under 0.01 µM and the TGI (HCT-116 colon) was 1.51 µM. It also gave a GI50 (HL-60(TB) leukemia) of 0.195 µM, a TGI (HL-60(TB) leukemia) of 2.54 µM and a GI50 (HOP-92 NSCLC) of 0.24 µM. It also gave a TGI (HOP-92 NSCLC) of 1.82 µM, a GI50 (HT29 colon) of under 0.01 µM and a TGI (HT29 colon) of 1.27 µM. It also gave a GI50 (IGROV1 ovarian) of under 0.01 µM, a TGI (IGROV1 ovarian) of 1.58 µM and a GI50 (KM12 colon) of 0.048 µM. The TGI (KM12 colon) was 1.67 µM, the GI50 (M14 melanoma) was under 0.01 µM and the TGI (M14 melanoma) was 1.63 µM. For the same compound, the GI50 (MALME-3M melanoma) was 1.17 µM, the TGI (MALME-3M melanoma) was 2.6 µM and the GI50 (MCF7 breast) was 0.0189 µM. For the same compound, the TGI (MCF7 breast) was 1.52 µM, the GI50 (MDA-MB-435) was under 0.01 µM and the TGI (MDA-MB-435) was 1.49 µM. It also gave a GI50 (NCI-H226 lung) of 0.96 µM, a TGI (NCI-H226 lung) of 4.3 µM and a GI50 (NCI-H23 lung) of 0.0284 µM. The TGI (NCI-H23 lung) was 1.49 µM, the GI50 (NCI-H460 lung) was under 0.01 µM and the TGI (NCI-H460 lung) was 1.47 µM. The GI50 (NCI-H522 lung) was 0.0378 µM, the TGI (NCI-H522 lung) was 1.82 µM and the GI50 (NCI/ADR-RES ovarian) was 0.0104 µM. It also gave a TGI (NCI/ADR-RES ovarian) of 1.63 µM, a GI50 (OVCAR-4 ovarian) of 1.05 µM and a TGI (OVCAR-4 ovarian) of 16.1 µM. For the same compound, the GI50 (OVCAR-5 ovarian) was 0.209 µM, the TGI (OVCAR-5 ovarian) was 2.13 µM and the GI50 (PC-3 prostate) was 0.0284 µM. The TGI (PC-3 prostate) was 3.16 µM, the GI50 (RPMI-8226 leukemia) was 0.0968 µM and the TGI (RPMI-8226 leukemia) was 2.83 µM. It also gave a GI50 (SF-268 CNS) of 0.0351 µM, a TGI (SF-268 CNS) of 1.69 µM and a GI50 (SF-295 CNS) of under 0.01 µM. The GI50 (SF-539 CNS) was 0.0695 µM, the TGI (SF-539 CNS) was 1.48 µM and the GI50 (SK-MEL-2 melanoma) was 1.48 µM. It also gave a TGI (SK-MEL-2 melanoma) of 3.02 µM, a GI50 (SK-MEL-28 melanoma) of 0.157 µM and a TGI (SK-MEL-28 melanoma) of 1.83 µM. It also gave a GI50 (SK-MEL-5 melanoma) of under 0.01 µM, a TGI (SK-MEL-5 melanoma) of 1.45 µM and a GI50 (SK-OV-3 ovarian) of 0.172 µM. The TGI (SK-OV-3 ovarian) was 2.22 µM, the GI50 (SNB-19 CNS) was 0.0141 µM and the TGI (SNB-19 CNS) was 1.51 µM. For the same compound, the GI50 (SNB-75 CNS) was 0.0945 µM, the TGI (SNB-75 CNS) was 2.01 µM and the GI50 (SW-620 colon) was under 0.01 µM. The TGI (SW-620 colon) was 1.6 µM, the GI50 (T-47D breast) was 0.67 µM and the TGI (T-47D breast) was 2.71 µM. The GI50 (TK-10 renal) was 0.0753 µM, the TGI (TK-10 renal) was 1.91 µM and the GI50 (UACC-257 melanoma) was 1.25 µM. It also gave a TGI (UACC-257 melanoma) of 2.72 µM, a GI50 (UO-31 renal) of 0.0457 µM and a TGI (UO-31 renal) of 1.64 µM.
